Measured values reported in patent publication US20070081948A1, “Dry powder composition comprising a benzodiazepine for pulmonary inhalation” (Vectura Limited, priority 2003, published 2007).

Assay: Emitted 6.8 micron particle fraction from vortex chamber versus ratio of chamber diameter to exit port diameter
Format: physicochemical
Details: for Normalised average particle fraction <6.8 μm (%): emitted fraction divided by fraction of the loaded powder
Excerpt: The normalised average 6.8 micron particle fraction is the emitted 6.8 micron particle fraction divided by the 6.8 micron particle fraction of the powdered medicament loaded into the inhaler. The medicament used was pure Intal™ sodium cromoglycate (Fisons UK).

- Average particle fraction <6.8 μm (%) (Ratio D/De 2.0): 64.7%
- Normalised average particle fraction <6.8 μm (%) (Ratio D/De 2.0): 73.1%
- Average particle fraction <6.8 μm (%) (Ratio D/De 3.1): 70.8%
- Normalised average particle fraction <6.8 μm (%) (Ratio D/De 3.1): 79.9%
- Average particle fraction <6.8 μm (%) (Ratio D/De 4.0): 75.5%
- Normalised average particle fraction <6.8 μm (%) (Ratio D/De 4.0): 85.2%
- Average particle fraction <6.8 μm (%) (Ratio D/De 6.0): 81.0%
- Normalised average particle fraction <6.8 μm (%) (Ratio D/De 6.0): 91.4%
- Average particle fraction <6.8 μm (%) (Ratio D/De 7.1): 83.5%
- Normalised average particle fraction <6.8 μm (%) (Ratio D/De 7.1): 94.3%
- Average particle fraction <6.8 μm (%) (Ratio D/De 8.0): 83.2%
- Normalised average particle fraction <6.8 μm (%) (Ratio D/De 8.0): 93.9%
- Average particle fraction <6.8 μm (%) (Ratio D/De 8.6): 80.6%
- Normalised average particle fraction <6.8 μm (%) (Ratio D/De 8.6): 91.0%
SMILES: O=C(O)c1cc(=O)c2c(OCC(O)COc3cccc4oc(C(=O)O)cc(=O)c34)cccc2o1 [sodium cromoglycate]
